# * marks the point of attachment. X1 = Nc1ncnc2c1ncn2[C@@H]1O[C@H](C(=O)NCCNC(=O)CCN2C(=O)CC(*)C2=O)[C@@H](O)[C@H]1O
# T1: AurA (Homo sapiens, UniProt O14965)
# T1 construct: purchased Carna Bioscience
# T1 sequence (O14965 1-403): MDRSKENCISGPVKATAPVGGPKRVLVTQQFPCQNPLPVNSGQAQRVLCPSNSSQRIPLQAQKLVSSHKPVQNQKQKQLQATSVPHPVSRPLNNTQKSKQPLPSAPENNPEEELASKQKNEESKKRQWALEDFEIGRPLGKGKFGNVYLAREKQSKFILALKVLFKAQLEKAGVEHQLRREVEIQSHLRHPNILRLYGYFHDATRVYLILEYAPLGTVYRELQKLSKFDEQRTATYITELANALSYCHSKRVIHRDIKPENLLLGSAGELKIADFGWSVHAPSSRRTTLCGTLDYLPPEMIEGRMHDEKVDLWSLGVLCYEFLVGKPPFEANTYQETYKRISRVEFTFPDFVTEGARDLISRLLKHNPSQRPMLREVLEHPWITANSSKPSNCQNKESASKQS
# T2: Aurora kinase A (AurA) (Homo sapiens, UniProt O14965)
# T2 chain: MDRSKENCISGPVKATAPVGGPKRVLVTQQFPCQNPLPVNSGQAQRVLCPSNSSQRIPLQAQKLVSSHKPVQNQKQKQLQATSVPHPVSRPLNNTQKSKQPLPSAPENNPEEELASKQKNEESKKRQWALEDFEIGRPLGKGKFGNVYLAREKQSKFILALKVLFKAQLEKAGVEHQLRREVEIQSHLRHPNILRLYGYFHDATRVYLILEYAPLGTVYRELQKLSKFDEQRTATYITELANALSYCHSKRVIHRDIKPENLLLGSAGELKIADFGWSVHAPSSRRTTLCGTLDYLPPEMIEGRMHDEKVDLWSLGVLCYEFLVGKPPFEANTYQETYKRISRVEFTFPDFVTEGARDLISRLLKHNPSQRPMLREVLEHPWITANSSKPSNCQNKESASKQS
# Columns and labels:
# AurA [1] = target: T1, AurA; assay: IMAP TR-FRET kinase inhibition assay, AurA; type: biochemical; details: for IC50: FAM-Kemptide 1 µM, ATP 5 µM (Table S2; Figure 3 legend prints mM), TBS reaction buffer
# AurA [2] = target: T1, AurA; assay: Lineweaver-Burk inhibition mechanism (IMAP TR-FRET, various ATP), AurA; type: biochemical; details: Lineweaver-Burk plot, various concentrations of ATP
# Description: Inhibition Mechanism of Peptide inhibitor Bip-3 for Aurora-A
# Lineweaver-Burk plots were generated by plotting the TR-FRET ratio values, which are proportional to reaction velocity in these conditions [8,9], as a function of the velocity versus ATP concentration ratio (v/[ATP]) at different concentrations of the peptide [19,20].
# Circular dichroism = type: physicochemical; details: CD, 20 μM peptide in TBS, 20 °C; compared with YT1
# [3] = test system: AurA, AurB, AurC, PAK4, Erk2, PKACα, and Src; assay: IMAP TR-FRET kinase selectivity panel; type: biochemical; details: 5 μM Bip-3-Adc vs AurA
# Method: Figure 3 Inhibitory activities of the selected peptide Bip‐3 and the adenosine‐tethering peptide Bip‐3‐Adc for AurA. (a) The structure of synthesized Bip‐3‐Adc, Bip‐3, and the original HLH peptide YT1. (b) The CD spectra of 20 μM Bip‐3 and YT1 measured in TBS at 20 °C. (c) The binding activity of Bip‐3 to immobilized AurA as determined by SPR experiments (TBS, 0.005 % P‐20, 25 °C). (d) Dose‐dependent inhibitory activities of Bip‐3 and Bip‐3‐Adc for AurA measured using an IMAP® TR‐FRET assay. Inhibition of AurA was determined at 100 ng/mL AurA, 1 mM 5FAM‐Kemptide, 5 mM ATP, in TBS reaction buffer. (e) Inhibitory activities of 5 μM Bip‐3‐Adc for AurA, AurB, AurC, PAK4, Erk2, PKACα, and Src, determined using the IMAP® TR‐FRET assay.
# CD spectra were recorded in TBS at overall peptide concentration of 20 μM on a J-820 spectrometer at 20°C (PTC-423L thermostat, Jasco). The peptide concentrations were determined by measuring absorbance of aromatic residues of peptide dissolved in 6 M Gdn•HCl at UV 280 nm[14].
# 9. Surface Plasmon Resonance […]
# denaturation of AurA, measurements were performed without regeneration of the sensor chip surface at each cycle, and any cycles were started after complete dissociation of analytes from the sensor chip. […] The concentration of adenosine-labeled peptide was determined by using the molar extinction coefficient of adenosine, and aromatic residues at UV 260 […]
# anti‐E‐tag antibody = assay: Phage ELISA, anti-E-tag antibody; type: binding; details: phage clone displaying P8-2KA, 10^10 cfu; HRP anti-M13, OD490
# Method: (§1) All of the experiments were performed as described . In this study, the insert fragment encoding of helix-loop- helix (HLH) peptide P8-2KA and phage clone displaying no peptide were prepared. With regard to clone P8-2KA, the insert fragment was initially prepared by overlap extension PCR using P8-2KA 1 fwd and P8-2KA 1 rev. After purification of the fragment, restriction site SfiI and E-tag epitope were introduced by the following PCR using Sfi- YT1- CD 2 fwd and Etag- linker 2 rev, and the product was purified. The fragment was fused with the pIII gene amplified by the two primers prepcr and Sfi2fo with the template fdg3p0ss21, and a fragment encoding P8- 2KA- fused pIII was prepared as described. After digestion of the fragment by SfiI and the succeeding purification, the fragment was ligated with fdg3p0ss21-stop which was digested with the same restriction enzyme. As a negative control, we also prepared a clone displaying no HLH peptide on phage. To prepare the phage clone, only linker primer was used in the PCR together with Sfi2fo and the pIII gene amplified from the template fdg3p0ss21 as described above. […]
# (§2) […] After was hing the wells with PBST 10 times, 100 µL of HRP Anti-M13 antibody conjugated (1:4000) was added, and the OD490 values were measured after adding o-phenylene diamine ([…] OPD, SIGMA) and adding 50 µL of
# G‐CSF‐R [4] = assay: Phage ELISA, G-CSF-R; type: binding; details: phage clone displaying P8-2KA, 10^10 cfu; HRP anti-M13, OD490
# Method: as §1, §2
# BSA = assay: Phage ELISA, BSA; type: binding; details: phage clone displaying P8-2KA, 10^10 cfu; HRP anti-M13, OD490
# Method: as §1, §2
# KDR (VEGF receptor) = assay: Phage ELISA, KDR; type: binding; details: phage clone displaying P8-2KA, 10^10 cfu; HRP anti-M13, OD490
# Method: as §1, §2
# G‐CSF‐R [5] = details: ref [2e] El-Haggar et al., Bioorg. Med. Chem. Lett. 2010; cited from earlier work
# Description: Mild conditions are required for modification to minimize damage to phage clones so that they remain infectious to the host Escherichia coli cells.[[8a]]
# [6] = test system: phage infectivity of the host TG1 E. coli cells; assay: Phage infectivity after chemical modification; details: higher concentrations within 0.5–500 μM in PBS, room temperature, 2 h; P8-2KA phage clone
# Method: Mild conditions are required for modification to minimize damage to phage clones so that they remain infectious to the host Escherichia coli cells.[[8a]] […] Phage clones (10^11 cfu) of P8‐2KA were treated with 200 μL of serially diluted maleimide‐PEG2‐biotin (0.5–500 μM) in PBS at room temperature for 2 h (Supporting Figure S3).
# 2. Chemical Modification of HLH peptide on Phage
# All of the experiments were performed as described. 200 µL of phage (1012 cfu) was dissolved in PBS (pH 7.0), and 1 µL of 1 mM Maleimide-PEG2-biotin (EZ-Link® Maleimide-PEG2-Biotin, Thermo Scientific) was added and incubated for 2 hr at room temperature. To eliminate the residual reagents in phage solution, the treated solution was purified by ultrafiltration at 14,000 g for 20 min at 4 C by using Amicon® Ultra 0.5 mL Ultracel® 10K (Millipore). After discarding the flow-through, 200 µL of chilled PBST was added, and centrifugated as the same above. 100 µL of the chemically modified phage was added to Streptavidin High Capacity Coated Plate (SIGMA). Detection of phages was performed as described above by using Anti-M13 antibody conjugated with HRP.
# 3. The Infectivity of phages after Chemical Modification
# All of the experiments were performed as described. […] Then the E. coli cells were inoculated onto LB/Agar containing 20 µg/mL chloramphenicol over night at 37°C, and colonies were counted. […]
# Aurora kinase A (AurA) = target: T2, Aurora kinase A (AurA); assay: SPR
# [7] = 100 ng/mL AurA, 1 hr, room temperature
molecule,measurement,setting,value
H-CDGGSGGGSAELAALEAELAALEGGGGGGGKLEYLKWKLWPLKGW-NH2 [Bip‐3],IC50,AurA [1]; [7],0.103 mM
same,mode of inhibition with respect to ATP,AurA [2],mixed inhibition
same,α-helical content,Circular dichroism,high α‐helical content comparable with that of the original peptide YT1
H-C(X1)DGGSGGGSAELAALEAELAALEGGGGGGGKLEYLKWKLWPLKGW-NH2 [Bip‐3‐Adc],fold difference in IC50 (inhibition of AurA) vs Bip-3,AurA [1]; Bip-3-Adc vs Bip-3 (IC50 103 μM),13 fold
same,fold difference in IC50 (inhibition of AurA) vs adenosine,AurA [1]; Bip-3-Adc vs adenosine (IC50 474 μM),62 fold
same,mode of inhibition with respect to ATP,AurA [2],uncompetitive inhibition
same,kinase selectivity,[3],highest inhibitory activity and remarkable selectivity for AurA
AELAALEAELAALE‐G7‐KLAALKAKLAALKAY [YT1],inhibitory activity for AurA,AurA [1]; [7],no inhibitory activity
CDGGSGGGS‐AELAALEAELAALE‐G7‐KLAMLKLKLAELKRY [P8‐2KA],binding to anti-E-tag antibody,anti‐E‐tag antibody,bound to anti‐E‐tag antibody
same,binding to G-CSF-R,G‐CSF‐R [4],selective binding
same,binding to BSA,BSA,no binding was observed
same,binding to KDR,KDR (VEGF receptor),no binding was observed
same,Kd,G‐CSF‐R [5],0.214 µM
O=C(CCCC[C@@H]1SC[C@@H]2NC(=O)N[C@@H]21)NCCOCCOCCNC(=O)CCN1C(=O)C=CC1=O [maleimide‐PEG2‐biotin],phage infectivity of TG1 E. coli cells,[6],small loss of phage infectivity
Nc1ncnc2c1ncn2[C@@H]1O[C@H](CO)[C@@H](O)[C@H]1O [adenosine],IC50,AurA [1]; [7],0.474 mM
same,mode of inhibition with respect to ATP,AurA [2],competitive inhibition for ATP
CDGGSGGGSAELAALEAELAALEGGGGGGGKLEYLKWKLWPLKGW [Bip-3],Kd,Aurora kinase A (AurA),13.7 µM
